pIC50: −log10 of the molar value.

Here are results for 19 compounds from ChEMBL document CHEMBL5370614, “Antimalarial Lanostane Dimers from Artificially Cultivated Fruiting Bodies of Ganoderma weberianum” (J Nat Prod, 2023).

Series [1] is described as follows: Cytotoxicity against African green monkey Vero cells assessed as cell growth inhibition by GFP fluorescence based assay. It is filed as toxicity. Particulars: African green monkey (Chlorocebus sabaeus).
The next series deals with Plasmodium falciparum. Description: Antimalarial activity against multi-drug resistant Plasmodium falciparum K1 infected in human erythrocytes assessed as parasite growth inhibition incubated for 24 hrs by [G-3H]hypoxanthine uptake assay. The settings on record: K1, Erythrocyte. The format is functional, organism-based.

In the case of `C.C[C@H](CC[C@@H](OC(=O)[C@@H](C)CC(=O)C[C@@H](C)[C@H]1C[C@@H](O)[C@@]2(C)C3=C(C(=O)C[C@]12C)[C@@]1(C)CC[C@@H](O)C(C)(C)[C@@H]1CC3=O)[C@@](C)(O)CO)[C@H]1CC[C@@]2(C)C3=CC[C@H]4C(C)(C)C(=O)CC[C@]4(C)C3=CC[C@]12C`, the pIC50 was 5.04 in series [1] and 5.89 in the series on Plasmodium falciparum. In the same order, the values of `C[C@H](CC(=O)C[C@H](C)C(=O)O[C@@H](CC[C@@H](C)[C@H]1C[C@H](O)[C@@]2(C)C3=C(CC[C@]12C)[C@@]1(C)CCC(=O)C(C)(C)[C@@H]1CC3)[C@](C)(O)CO)[C@H]1C[C@@H](O)[C@@]2(C)C3=C(C(=O)C[C@]12C)[C@@]1(C)CCC(=O)C(C)(C)[C@@H]1CC3=O` are 5.09 and 7.24. As for `C[C@H](CC[C@@H](O)[C@@](C)(O)CO)[C@H]1CC[C@@]2(C)C3=CC[C@H]4C(C)(C)C(=O)CC[C@]4(C)C3=CC[C@]12C`, the pIC50 in series [1] was less than 3.97; in the series with Plasmodium falciparum it was less than 4.68. With `C[C@H](CC(=O)C[C@H](C)C(=O)O[C@@H](CC[C@@H](C)[C@H]1C[C@H](O)[C@@]2(C)C3=C(CC[C@]12C)[C@@]1(C)CCC(=O)C(C)(C)[C@@H]1CC3)[C@](C)(O)CO)[C@H]1C[C@@H](O)[C@@]2(C)C3=C(C(=O)C[C@]12C)[C@@]1(C)CC[C@@H](O)C(C)(C)[C@@H]1CC3=O`, the pIC50 was 4.89 in series [1] and 6.64 in the series on Plasmodium falciparum.

For `C[C@H](CC[C@H](O)[C@](C)(O)CO)[C@H]1CC[C@@]2(C)C3=CC[C@H]4C(C)(C)C(=O)CC[C@]4(C)C3=CC[C@]12C` [GANODERMANONTRIOL], the values for the pIC50 (in series [1]; with Plasmodium falciparum) were less than 3.97 and less than 4.68, respectively. For `C[C@H](CC(=O)C[C@@H](C)[C@H]1C[C@@H](O)[C@@]2(C)C3=C(C(=O)C[C@]12C)[C@@]1(C)CCC(=O)C(C)(C)[C@@H]1CC3=O)C(=O)O[C@H](CC[C@@H](C)[C@H]1CC[C@@]2(C)C3=CC[C@H]4C(C)(C)C(=O)CC[C@]4(C)C3=CC[C@]12C)[C@@](C)(O)CO` the same measures were 5.05 and 5.63.

With `C[C@H](CC(=O)C[C@H](C)C(=O)O)[C@H]1C[C@H](O)[C@@]2(C)C3=C(C(=O)C[C@]12C)[C@@]1(C)CCC(=O)C(C)(C)[C@@H]1CC3`, the pIC50 in series [1] is less than 4.00; in the series with Plasmodium falciparum, less than 4.70. As to `C[C@H]1[C@@H](O)O[C@@H]2O[C@@]3(C)CC[C@H]4[C@H](C)CC[C@@H]1[C@@]24OO3` [ARTENIMOL], the pIC50 in the series with Plasmodium falciparum is 8.70. `C[C@H](CC[C@H](O)[C@](C)(O)COC(=O)[C@@H](C)CC(=O)C[C@@H](C)[C@H]1C[C@@H](O)[C@@]2(C)C3=C(C(=O)C[C@]12C)[C@@]1(C)CCC(=O)C(C)(C)[C@@H]1CC3=O)[C@H]1CC[C@@]2(C)C3=CC[C@H]4C(C)(C)C(=O)CC[C@]4(C)C3=CC[C@]12C`: the figures for the pIC50 (in series [1]; in the series on Plasmodium falciparum) were less than 4.28 and 6.11, respectively. Regarding `C[C@H](CC[C@H](O)[C@](C)(O)COC(=O)[C@@H](C)CC(=O)C[C@@H](C)[C@H]1C[C@@H](O)[C@@]2(C)C3=C(C(=O)C[C@]12C)[C@@]1(C)CC[C@@H](O)C(C)(C)[C@@H]1CC3=O)[C@H]1CC[C@@]2(C)C3=CC[C@H]4C(C)(C)C(=O)CC[C@]4(C)C3=CC[C@]12C`, the values for the pIC50 (in series [1]; with Plasmodium falciparum) were 4.62 and 5.48, respectively. In the case of `C[C@H](CC(=O)C[C@H](C)C(=O)O)[C@H]1C[C@H](O)[C@@]2(C)C3=C(C(=O)C[C@]12C)[C@@]1(C)CCC(=O)C(C)(C)[C@@H]1CC3=O`, the negative logarithm of the IC50 (pIC50) in series [1] was less than 4.01; with Plasmodium falciparum, less than 4.72. With `C[C@H](CC(=O)C[C@H](C)C(=O)O)[C@H]1C[C@H](O)[C@@]2(C)C3=C(C(=O)C[C@]12C)[C@@]1(C)CC[C@@H](O)C(C)(C)[C@@H]1CC3=O`, the values for the pIC50 (in series [1]; with Plasmodium falciparum) were less than 4.01 and less than 4.72, respectively.

Take `C[C@H](CC(=O)C[C@H](C)C(=O)O)[C@H]1C[C@H](O)[C@@]2(C)C3=C(C(=O)C[C@]12C)[C@@]1(C)CCC(=O)C(C)(C)[C@@H]1C[C@H]3O`: the pIC50 in series [1] was less than 4.01; in the series on Plasmodium falciparum it was 4.72. Consider `C[C@H](CC(=O)C[C@H](C)C(=O)OC[C@@](C)(O)[C@@H](O)CC[C@@H](C)[C@H]1C[C@H](O)[C@@]2(C)C3=C(CC[C@]12C)[C@@]1(C)CCC(=O)C(C)(C)[C@@H]1CC3)[C@H]1C[C@@H](O)[C@@]2(C)C3=C(C(=O)C[C@]12C)[C@@]1(C)CCC(=O)C(C)(C)[C@@H]1CC3=O`, for which the pIC50 in series [1] was 4.72; in the series on Plasmodium falciparum, 7.46. For the compound `C[C@H](CC[C@H](OC(=O)[C@@H](C)CC(=O)C[C@@H](C)[C@H]1C[C@@H](O)[C@@]2(C)C3=C(C(=O)C[C@]12C)[C@@]1(C)CC[C@@H](O)C(C)(C)[C@@H]1CC3=O)[C@](C)(O)CO)[C@H]1CC[C@@]2(C)C3=C(CC[C@]12C)[C@@]1(C)CCC(=O)C(C)(C)[C@@H]1C[C@H]3O`, the pIC50 was 5.64 in series [1] and 6.41 in the series with Plasmodium falciparum.

In the case of `C[C@H](CC[C@@H](O)[C@@](C)(O)COC(=O)[C@@H](C)CC(=O)C[C@@H](C)[C@H]1C[C@@H](O)[C@@]2(C)C3=C(C(=O)C[C@]12C)[C@@]1(C)CCC(=O)C(C)(C)[C@@H]1CC3=O)[C@H]1CC[C@@]2(C)C3=CC[C@H]4C(C)(C)C(=O)CC[C@]4(C)C3=CC[C@]12C`, the pIC50 was less than 4.28 in series [1] and 5.96 in the series on Plasmodium falciparum.

Regarding `Cc1c2ccncc2c(C)c2c1[nH]c1ccccc12` [ELLIPTECINE], the pIC50 in series [1] was 5.54.

Consider `C[C@H](CC[C@@H](OC(=O)[C@@H](C)CC(=O)C[C@@H](C)[C@H]1C[C@@H](O)[C@@]2(C)C3=C(C(=O)C[C@]12C)[C@@]1(C)CC[C@@H](O)C(C)(C)[C@@H]1CC3=O)[C@@](C)(O)CO)[C@H]1CC[C@@]2(C)C3=C(CC[C@]12C)[C@@]1(C)CCC(=O)C(C)(C)[C@@H]1C[C@H]3O`, for which the results for the pIC50 (in series [1]; in the series with Plasmodium falciparum) were 4.77 and 6.17, respectively.

With `C[C@H](CC(=O)C[C@H](C)C(=O)O)[C@H]1C[C@H](O)[C@@]2(C)C3=C(C(=O)C[C@]12C)[C@@]1(C)CC[C@@H](O)C(C)(C)[C@@H]1CC3`, the pIC50 in series [1] is less than 4.00; with Plasmodium falciparum, less than 4.70.
